Data published in publication PMC3125149, “SCYX-7158, an Orally-Active Benzoxaborole for the Treatment of Stage 2 Human African Trypanosomiasis” (PLoS Neglected Tropical Diseases, 2011).
Where two headings read alike, the source gives them in different places.

Experiments:
T. b. brucei = experiment: Effect of serum on trypanocidal activity; format: cell-based; details: 25% mouse serum or 50% bovine serum
Experimental: (§1) Compounds to be tested were serially diluted in DMSO and added to 96-well plates to give final concentrations ranging from 5 to 0.01 µg/mL. T. b. brucei parasites in the log phase of growth were diluted in HMI-9 media and added to each well for a final concentration of 1×10^4 parasites per well. For the sensitivity assays using T. b. rhodesiense and T. b. gambiense, pararasites were cultured in MEM supplemented with Baltz components (8), diluted in the aforementioned culture media, and added to each well at a density of 1×10^3 cells/well. The final concentration of DMSO was 0.5% and the total volume was 100 µL/well. After a 72 h incubation, resazurin (Sigma-Aldrich, St. Louis, MO) was added to each well [20 µL of 25 mg/100 mL stock in phosphate buffered saline (PBS)] and incubated for an additional 4–6 h.[22] To assess cell viability, fluorescence was quantified using an EnVision Multilabel Plate Reader (Perkin Elmer, Waltham, MA) at an excitation wavelength of 530 nm and emission of 590 nm. Triplicate data points were averaged to generate sigmoidal dose-response curves and determine IC50 values using XLfit curve fitting software from IDBS (Guilford, UK). The IC50 is defined as the amount of compound required to decrease parasite or cell viability by 50% compared to those grown in the absence of the test compound. […]

[1] = Pharmacokinetics in uninfected mice; format: in vivo, mouse
Experimental: (§2) The blood distribution, CNS disposition and pharmacokinetics of SCYX-7158 were evaluated in infected or non-infected rodents following intravenous or oral administration of compounds. Pharmacokinetics and bioavailability of SCYX-7158 were also evaluated in non-infected beagle dogs and cynomolgus monkeys. In-life phases of non-infected rodent studies were performed at Vivisource (Waltham, MA); studies in non-naïve cynomolgus monkeys were performed by SNBL USA (Everett, WA). Male CD-1 mice (∼25 g), male Sprague-Dawley rats (∼225 g), or male cynomolgus monkeys (∼3–5 kg) were administered test article by either bolus intravenous injection (IV) or oral gavage. Animals in the IV groups received a single 2 mg/kg IV dose. Animals received oral doses of test articles as either single or twice daily doses ranging from 8 mg/kg to 50 mg/kg. All doses were administered as clear colorless solutions in either 50% (v/v) PEG 400: 20% (v/v) ethanol: 30% (v/v) carboxymethylcellulose (0.5% w/v in sterile water for injection) or 2% (v/v) ethanol: 5% (w/v) dextrose in sterile water for injection. […] For pharmacokinetic analysis, blood samples were collected from mice via cardiac puncture under terminal anaesthesia. Serial blood samples were collected from rats via a vascular access port located in the lateral saphenous vein. Mice and rats were euthanized in a CO2 chamber before collection of terminal blood samples or brain tissue. Blood samples were collected into polypropylene tubes containing K2EDTA anticoagulant and stored on ice until centrifuged for the preparation of plasma. Plasma was stored at −70°C. Whole brains were collected following decapitation, blotted dry, placed into polypropylene containers and then immediately frozen at approximately −70°C. CSF was collected from rats via cisterna magna puncture, placed in sterile polypropylene tubes, and stored at approximately −70°C. […] Treated samples were gently mixed at room temperature for 10 min, and then centrifuged at approximately 3000×g for 15 min at 15°C. The supernatants were transferred to 96-well plates or HPLC vials for analysis by LC-MS/MS. Pharmacokinetic parameters were calculated from composite mean plasma or tissue data using non-compartmental (oral and intravenous routes) and bi-exponential (intravenous route) analyses in Microsoft Excel.

[2] = Pharmacokinetics in uninfected rats; format: in vivo, rat
Experimental: as §2

[3] = Pharmacokinetics in cynomolgus monkeys; format: in vivo, cynomolgus monkey
Experimental: as §2

T. b. brucei 427 = experiment: In vitro compound sensitivity assay (resazurin viability); format: cell-based; details: T. b. brucei S427; at 10 µM
Description: The bloodstream-form T. b. brucei 427 strain was obtained from Dr. K. Stuart (Seattle Biomedical Research Institute, Seattle, WA) and was used for routine assessment of compound sensitivity in vitro. Additional strains used in vitro include T. b. rhodesiense STIB900, isolated in 1992 from a patient in Tanzania, and T. b. gambiense 108R, isolated from a patient in Democratic Republic of Congo in 2005. T. b. brucei EATRO 110 was a generous gift from the late William Trager of the Rockefeller University. T. b. brucei TREU 667 strains were kindly provided by F. W. Jennings at the University of Glasgow. Both T. b. brucei EATRO 110 and TREU 667 were cultured according to previously described conditions and used for in vivo studies.[18], [19]
T. b. brucei was cultured in complete HMI-9 medium,[20] which contains 10% fetal bovine serum (FBS) (Invitrogen, Carlsbad, CA), 10% Serum Plus medium (SAFC Biosciences, Lenexa, KS), and 100 units/mL penicillin and 0.1 mg/mL streptomycin. The trypanosomes were propagated in T-25 vented cap flasks (Corning Inc., Lowell, MA) at 37°C and 5% CO2 with humidity. To ensure log growth phase, trypanosomes were sub-cultured at appropriate dilutions (typically 1∶100) every 2–3 days in fresh HMI-9 medium. T. b. rhodesiense parasites were grown in MEM medium with Earle's salts supplemented with 15% horse serum. For T. b. gambiense, the MEM medium was supplemented with 5% heat-inactivated fetal calf serum (FCS) and 15% human serum.[21] L929 mouse fibroblast cells (ATCC CCL1, American Type Culture Collection, Rockville, MD) were used to determine parasite versus mammalian cell selectivity. Cells were cultured in Dulbecco's Modified Eagle Medium (DMEM), supplemented with 10% FBS, L-glutamine and 100 units/mL penicillin and 0.1 mg/mL streptomycin. MDCKII-hMDR1 cells were generously provided by P. Borst at the Netherlands Kancer Institute. Cells were cultured in DMEM with Glutamax, 10% (v/v) FBS, and 100 units/mL penicillin and 0.1 mg/mL streptomycin. Cell monolayers were fed with cell culture media 24 h after seeding and used for permeability studies 3 days later.
as §1

CYP1A2 = biological target: T1, CYP1A2 (Homo sapiens, UniProt P05177); experiment: P450-Glo cytochrome P450 inhibition; format: biochemical; details: human recombinant CYP1A2
T1 construct: purchased Promega Inc., Madison, WI
Experimental: (§3) The potential for compound to exert drug-drug interactions that are mediated through inhibition of cytochrome P450 activities was assessed using P450-Glo assay kits (Promega Inc., Madison, WI). Assays for human cytochrome P450 isoforms 3A4, 1A2, 2C9, 2C19, and 2D6 were performed in triplicate according to the manufacturer's instructions over the concentration range 1–100 µM (n = 6 levels). Briefly, SCYX-7158 was added to membrane preparations containing human recombinant CYP450 enzymes together with luminogenic substrates specific to each isoform. Specific CYP450 inhibitors were included as positive controls (ketoconazole, CYP3A4; alpha-napthoflavone, 1A2; sulfaphenazole, CYP2C9; troglitazone, 2C19, and quinidine, CYP2D6). Reactions were initiated by addition of NADPH-regenerating solution and were allowed to incubate for an additional 15–30 min (isoform dependent). Luciferin detection reagent, containing the luciferin-labeled probe substrate, was then added. Luminescence was recorded on an EnVision Multilabel Plate Reader. Calculation of IC50 concentrations for each enzyme was determined using GraphPad Prism (V5.01).

CYP2C19 = biological target: T2, CYP2C19 (Homo sapiens, UniProt P33261); experiment: P450-Glo cytochrome P450 inhibition; format: biochemical; details: human recombinant CYP2C19
T2 construct: purchased Promega Inc., Madison, WI
Experimental: as §3

CYP2C9 = biological target: T3, CYP2C9 (Homo sapiens, UniProt P11712); experiment: P450-Glo cytochrome P450 inhibition; format: biochemical; details: human recombinant CYP2C9
T3 construct: purchased Promega Inc., Madison, WI
Experimental: as §3

CYP2D6 = biological target: T4, CYP2D6 (Homo sapiens, UniProt P10635); experiment: P450-Glo cytochrome P450 inhibition; format: biochemical; details: human recombinant CYP2D6
T4 construct: purchased Promega Inc., Madison, WI
Experimental: as §3

CYP3A4 = biological target: T5, CYP3A4 (Homo sapiens, UniProt P08684); experiment: P450-Glo cytochrome P450 inhibition; format: biochemical; details: human recombinant CYP3A4
T5 construct: purchased Promega Inc., Madison, WI
Experimental: as §3

[4] = Pharmacokinetics in uninfected mice; format: in vivo, mouse; details: male, CD-1, mouse; oral dose of 56 mg/kg SCYX-7158, plasma
T. b. brucei TREU 667 = details: cited from earlier work
GVR35 stage 2 HAT model = details: ref R. Brun, personal communication, cited from earlier work
[5] = mouse, in vivo, po; cited from earlier work

T1 sequence (P05177 whole entry): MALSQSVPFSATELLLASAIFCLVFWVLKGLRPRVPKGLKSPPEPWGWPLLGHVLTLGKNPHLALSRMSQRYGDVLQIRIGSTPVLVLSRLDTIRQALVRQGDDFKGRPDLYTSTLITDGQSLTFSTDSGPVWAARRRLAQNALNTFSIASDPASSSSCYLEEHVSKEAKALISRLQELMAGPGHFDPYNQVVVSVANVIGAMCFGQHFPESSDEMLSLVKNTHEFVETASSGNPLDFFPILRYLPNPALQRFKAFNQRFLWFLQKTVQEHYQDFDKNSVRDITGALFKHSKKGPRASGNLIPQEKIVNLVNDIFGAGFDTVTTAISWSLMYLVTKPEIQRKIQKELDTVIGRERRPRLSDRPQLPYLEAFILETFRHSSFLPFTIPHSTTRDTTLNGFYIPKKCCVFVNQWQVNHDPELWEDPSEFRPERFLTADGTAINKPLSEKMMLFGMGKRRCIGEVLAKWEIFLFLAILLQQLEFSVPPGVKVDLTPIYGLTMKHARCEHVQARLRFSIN
T3 sequence (P11712 whole entry): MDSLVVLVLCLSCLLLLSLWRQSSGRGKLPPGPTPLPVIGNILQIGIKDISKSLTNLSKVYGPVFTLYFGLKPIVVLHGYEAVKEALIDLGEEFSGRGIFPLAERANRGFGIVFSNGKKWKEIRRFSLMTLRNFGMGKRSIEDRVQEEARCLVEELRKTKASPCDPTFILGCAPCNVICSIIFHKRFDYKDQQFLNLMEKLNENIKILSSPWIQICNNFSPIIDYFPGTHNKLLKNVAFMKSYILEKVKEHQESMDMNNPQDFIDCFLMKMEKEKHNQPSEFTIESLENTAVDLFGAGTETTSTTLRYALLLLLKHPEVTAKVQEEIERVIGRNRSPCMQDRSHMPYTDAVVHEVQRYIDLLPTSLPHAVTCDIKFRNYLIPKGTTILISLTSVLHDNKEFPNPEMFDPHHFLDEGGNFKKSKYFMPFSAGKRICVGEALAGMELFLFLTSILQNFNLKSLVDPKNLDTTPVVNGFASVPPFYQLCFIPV
T2 sequence (P33261 whole entry): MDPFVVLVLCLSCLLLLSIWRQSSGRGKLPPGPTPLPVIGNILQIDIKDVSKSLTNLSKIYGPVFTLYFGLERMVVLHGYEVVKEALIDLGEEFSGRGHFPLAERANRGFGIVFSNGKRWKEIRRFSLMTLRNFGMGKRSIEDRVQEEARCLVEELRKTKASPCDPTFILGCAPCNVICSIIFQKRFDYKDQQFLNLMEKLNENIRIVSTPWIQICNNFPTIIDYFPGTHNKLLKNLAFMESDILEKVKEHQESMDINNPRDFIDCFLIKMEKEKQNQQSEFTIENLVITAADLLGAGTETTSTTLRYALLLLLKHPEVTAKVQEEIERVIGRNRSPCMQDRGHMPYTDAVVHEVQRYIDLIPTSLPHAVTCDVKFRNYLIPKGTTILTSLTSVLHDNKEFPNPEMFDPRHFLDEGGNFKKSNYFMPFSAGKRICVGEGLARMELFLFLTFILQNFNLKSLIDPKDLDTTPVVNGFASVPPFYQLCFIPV
T5 sequence (P08684 whole entry): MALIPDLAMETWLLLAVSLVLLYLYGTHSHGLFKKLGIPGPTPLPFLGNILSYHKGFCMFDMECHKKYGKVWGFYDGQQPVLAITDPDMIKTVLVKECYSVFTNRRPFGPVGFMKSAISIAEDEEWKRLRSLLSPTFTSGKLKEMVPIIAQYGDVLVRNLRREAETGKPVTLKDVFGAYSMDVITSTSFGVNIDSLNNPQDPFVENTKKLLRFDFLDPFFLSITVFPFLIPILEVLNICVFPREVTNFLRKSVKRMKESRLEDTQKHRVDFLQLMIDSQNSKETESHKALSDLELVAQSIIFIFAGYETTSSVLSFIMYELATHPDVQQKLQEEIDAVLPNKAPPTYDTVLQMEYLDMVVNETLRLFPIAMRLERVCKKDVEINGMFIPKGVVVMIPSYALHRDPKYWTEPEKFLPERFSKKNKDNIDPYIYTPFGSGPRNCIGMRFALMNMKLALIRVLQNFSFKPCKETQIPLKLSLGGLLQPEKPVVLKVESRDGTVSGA
T4 sequence (P10635 whole entry): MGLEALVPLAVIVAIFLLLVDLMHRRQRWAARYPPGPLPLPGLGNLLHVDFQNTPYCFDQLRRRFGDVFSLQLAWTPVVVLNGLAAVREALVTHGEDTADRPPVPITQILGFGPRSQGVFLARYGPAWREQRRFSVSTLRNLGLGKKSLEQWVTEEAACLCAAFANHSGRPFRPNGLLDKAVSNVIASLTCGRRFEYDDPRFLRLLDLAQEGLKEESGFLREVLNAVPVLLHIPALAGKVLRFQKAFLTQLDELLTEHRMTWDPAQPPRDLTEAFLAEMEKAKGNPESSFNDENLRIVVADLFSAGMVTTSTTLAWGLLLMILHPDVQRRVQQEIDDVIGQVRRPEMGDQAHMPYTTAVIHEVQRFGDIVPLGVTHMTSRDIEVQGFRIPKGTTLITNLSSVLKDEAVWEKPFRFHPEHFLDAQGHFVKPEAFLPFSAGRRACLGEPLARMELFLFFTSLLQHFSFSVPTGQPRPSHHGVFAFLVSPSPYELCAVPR

**Q.** Which “attenuation of in vitro IC50” value (T. b. brucei) does the source give for `Cc1ccc(C(=O)Nc2ccc(S(=O)(=O)O)c3cc(S(=O)(=O)O)cc(S(=O)(=O)O)c23)cc1NC(=O)c1cccc(NC(=O)Nc2cccc(C(=O)Nc3cc(C(=O)Nc4ccc(S(=O)(=O)O)c5cc(S(=O)(=O)O)cc(S(=O)(=O)O)c45)ccc3C)c2)c1` [suramin, reference compound] here?
**A.** greater than 25 fold

**Q.** Which results are given for `OB(O)O` [boric acid]?
**A.** estimated maximum concentration of boric acid ([1]; not measured, mice, 56 mg/kg oral SCYX-7158): 0.05 µg/mL; estimated maximum concentration of boric acid ([2]; not measured, rats, 10 mg/kg oral SCYX-7158): 0.09 µg/mL; estimated maximum concentration of boric acid (borate) ([3]; not measured, equimolar to SCYX-3109, 10 mg/kg NG SCYX-7158): ≤ 0.02 µg/mL

**Q.** Which results are given for `CC(C)(O)c1ccc(NC(=O)c2ccc(F)cc2C(F)(F)F)cc1O` [SCYX-3109]?
**A.** inhibition of parasite growth (T. b. brucei 427): inactive; IC50 (CYP1A2): > 100 µM; IC50 (CYP2C19): > 100 µM; IC50 (CYP2C9): > 100 µM; IC50 (CYP2D6): > 100 µM; IC50 (CYP3A4): 7.5 µM; metabolite plasma concentration as % of the SCYX-7158 concentration ([1]; oral dose of 56 mg/kg SCYX-7158, all time points): approximately 1%; Cmax ([2]; male, Sprague-Dawley, rat, oral dose of 10 mg/kg SCYX-7158, plasma, read-out: Cmax): 500 ng/mL; metabolite plasma concentration as % of the SCYX-7158 concentration ([2]; oral dose of 10 mg/kg SCYX-7158, each time point): 3-5%; metabolite plasma concentration as % of the SCYX-7158 concentration ([3]; 10 mg/kg NG group, all time points): approximately 1%; AUC(0-inf) ([3]; male, cynomolgus monkey, oral, 10 mg/kg SCYX-7158 NG, plasma): 6400 ng·h/mL; Cmax ([3]; male, cynomolgus monkey, oral, 10 mg/kg SCYX-7158 nasogastric (NG), plasma): 140 ng/mL; Cmax [4]: 270 ng/mL

**Q.** For `N=C(N)c1ccc(/N=N/Nc2ccc(C(=N)N)cc2)cc1` [berenil, diminazene, reference compound], which “outcome in stage 2 model” value (T. b. brucei TREU 667; single 10 mg/kg i.p. on day 4 after infection (positive control)) is on record?
**A.** cured

**Q.** And the “outcome in stage 2 model” value (T. b. brucei TREU 667; single 10 mg/kg i.p. on day 21 after infection (negative control))?
**A.** do not sustain cures

**Q.** What about the “time of re-infection of the hemolymphatic system (recrudescence)” value (T. b. brucei TREU 667; treated 21 days after infection) of the same compound?
**A.** 35–42 days after infection

**Q.** Which toxicity to mice (GVR35 stage 2 HAT model; 20 mg/kg QD x 5 days) does the source give for `Nc1nc(N)nc(Nc2ccc([As]3SCC(CO)S3)cc2)n1` (centres unmarked) [melarsoprol] here?
**A.** toxic

**Q.** What about the “dose needed to effect cure” value (GVR35 stage 2 HAT model; QD × 5 days) of the same compound?
**A.** 10 to 15 mg/kg

**Q.** For `O=C(Nc1ccc2c(c1)B(O)OC2)c1ccc(F)cc1C(F)(F)F` [SCYX-6759, 4-fluoro-N-(1-hydroxy-1,3-dihydrobenzo[c][1], [2]oxaborol-6-yl)-2-trifluoromethylbenzamide], which “efficacy in stage 2 mouse model” value (T. b. brucei TREU 667; 50 mg/kg twice-daily intraperitoneal (100 mg/kg/day) for 14 days) is on record?
**A.** fully efficacious

**Q.** And the “efficacy in stage 2 mouse model” value (T. b. brucei TREU 667; 50 mg/kg twice-daily oral for 7 days)?
**A.** only partial efficacy

**Q.** And the “efficacy in stage 2 mouse model” value (T. b. brucei TREU 667; lower doses or once-daily paradigm)?
**A.** not active

**Q.** And the “time post-dose at which brain concentrations fell below the MIC” value [5]?
**A.** approximately 12 h
